# Source: patent US20110124523A1, “High Throughput Method for Detecting Apoptosis of Embryonic Stages of Metazoan Helminthic Parasites” (INSTITUTE OF LIFE SCIENCES, priority 2009, published 2011)
# Several values for one entry are separate records, joined by “and”; a condition that tells them apart may be missing. Identical values can stand only once.
# Tests used:
# [1] = tested on: embryonic stages of S. digitata; test: Externalization of phosphatidyl serine, Annexin-V-PE staining, flow cytometry; assay type: cell-based, Setaria digitata; conditions: for GMI (Geometric Mean Intensity) of Fluorescence, Annexin-V-PE Staining: 24 hr; for externalization of Phosphatidyl serine (result in words): Microfilariae and eggs, Annexin-V-PE staining
# Method: Adult female filarial worms Setaria digitata were collected from the peritoneum of cattle, slaughtered at a nearby abattoir in sterile Hanks Balanced Salt Solution (HBSS) medium (Sigma H 2387-1L) and transported to the laboratory in a sterile container. The medium containing 1% glucose (Sigma G 7528), Penicillin 100 units/ml, Streptomycin 100 μg/ml (Sigma P 4333). And Amphotericin-B 0.25 μg/ml (Sigma A 2942) was buffered with NaHCO3 (Sigma S 5761). About 5 to 7 worms were taken in a petridish, washed three times in medium, dissected into small pieces in 10 ml of medium under sterile conditions and incubated at 37° C. for 30 minutes to allow the release of embryonic stages (eggs and microfilariae) into the medium. The embryonic stages were harvested into sterile 15 ml. centrifuge tubes and washed three times by centrifuging at 300 g for 10 minutes each with medium and the final pellet was suspended in 1 ml. of RPMI-1640 medium (Sigma R 8005) supplemented with 10% FBS (Sigma F 2442) The number of embryonic stages of S. digitata in the above preparation were counted using light microscope, and the suspension was taken in RPMI-1640 medium containing 10% FBS at 1×10^5 embryonic stages/ml. One ml. each was dispensed into individual wells of a 24 well tissue culture plate. One set of wells was taken as untreated control containing only medium with 10% FBS. […] Motility of the Mf was scored under an inverted microscope. After appropriate treatment and incubation, each set of the cultured embryonic stages of S. digitata were harvested from the 24 well tissue culture plate separately in 15 ml. sterile centrifuge tubes, washed with PBS twice and stained as per requirement following manufacturer's instructions as described below. This was followed by two times washing with PBS and final suspension of the stained embryonic stages was taken in 0.5 ml of sheath fluid (BD Biosciences 342003) before their acquisition in the flow cytometer (BD FACS Calibur, Becten and Dickinson, USA). Analysis was performed on 10,000-acquired events depicted as Dot Plots and Histogram Plots using Cellquest Pro soft ware. All plots were representative of at least 3 experiments. The distinctly clustered populations obtained consistently in the Dot plots for the intra uterine embryonic stages of S. digitata (FIG. 1 a) were gated for Mfs (R-1) and eggs (R-2 and R-3) and analyzed for different assays for apoptosis as described below. The externalization of phosphatidyl serine was detected by staining the embryonic stages with Annexin-V-PE (BD Biosciences 556421) as per the instructions of the manufacturer. Briefly, the embryonic stages of S. digitata were subjected to various treatments in culture for 24 hrs. After the said period of incubation the embryonic stages were harvested, washed with ice cold PBS twice and resuspended in 100 μl of 1× Annexin-V binding buffer (BD Biosciences 556454) at 1×10^5 embryonic stages per ml. to which 5 μl of Annexin-V-PE was added. After 15 minutes of Incubation in dark at room temperature another 400 μl of 1× Annexin-V binding buffer was added to the above suspension. The resulting 500 μl suspension of Annexin-V-PE stained embryonic stages was then acquired and analyzed by flow cytometer.
# [2] = tested on: embryonic stages of S. digitata; test: Mitochondrial depolarization, mitoscreen JC-1 staining; assay type: cell-based, Setaria digitata; conditions: for GMI (Geometric Mean Intensity) of Fluorescence, Mitoscreen-jc-1 staining (Mitochondrial Depolarisation assay): 24 hr, depolarisation = reduction in GMI; for induction of mitochondrial depolarization (result in words): Mfs and eggs, mitoscreen JC-1 staining
# Method: Adult female filarial worms Setaria digitata were collected from the peritoneum of cattle, slaughtered at a nearby abattoir in sterile Hanks Balanced Salt Solution (HBSS) medium (Sigma H 2387-1L) and transported to the laboratory in a sterile container. The medium containing 1% glucose (Sigma G 7528), Penicillin 100 units/ml, Streptomycin 100 μg/ml (Sigma P 4333). And Amphotericin-B 0.25 μg/ml (Sigma A 2942) was buffered with NaHCO3 (Sigma S 5761). About 5 to 7 worms were taken in a petridish, washed three times in medium, dissected into small pieces in 10 ml of medium under sterile conditions and incubated at 37° C. for 30 minutes to allow the release of embryonic stages (eggs and microfilariae) into the medium. The embryonic stages were harvested into sterile 15 ml. centrifuge tubes and washed three times by centrifuging at 300 g for 10 minutes each with medium and the final pellet was suspended in 1 ml. of RPMI-1640 medium (Sigma R 8005) supplemented with 10% FBS (Sigma F 2442)
# The number of embryonic stages of S. digitata in the above preparation were counted using light microscope, and the suspension was taken in RPMI-1640 medium containing 10% FBS at 1×10^5 embryonic stages/ml. One ml. each was dispensed into individual wells of a 24 well tissue culture plate. One set of wells was taken as untreated control containing only medium with 10% FBS. […] Motility of the Mf was scored under an inverted microscope.
# After appropriate treatment and incubation, each set of the cultured embryonic stages of S. digitata were harvested from the 24 well tissue culture plate separately in 15 ml. sterile centrifuge tubes, washed with PBS twice and stained as per requirement following manufacturer's instructions as described below. This was followed by two times washing with PBS and final suspension of the stained embryonic stages was taken in 0.5 ml of sheath fluid (BD Biosciences 342003) before their acquisition in the flow cytometer (BD FACS Calibur, Becten and Dickinson, USA). Analysis was performed on 10,000-acquired events depicted as Dot Plots and Histogram Plots using Cellquest Pro soft ware. All plots were representative of at least 3 experiments. The distinctly clustered populations obtained consistently in the Dot plots for the intra uterine embryonic stages of S. digitata (FIG. 1 a) were gated for Mfs (R-1) and eggs (R-2 and R-3) and analyzed for different assays for apoptosis as described below.
# The mitochondrial membrane potential (ΔΨm) was measured using JC-1 probe (a cataionic lipophilic fluorochrome that accumulates in mitochondria in proportion to mitochondrial membrane potential) supplied in mitoscreen JC-1 kit (BD Biosciences 551302). Briefly a suspension of in-vitro cultured embryonic stages at 1×10^5 embryonic stages/ml. was mixed with 0.5 ml of freshly prepared JC-1 working solution for 10-15 minutes at 37° C. in a CO2 incubator followed by two times washing and final suspension of the embryonic stages in 1× assay buffer (supplied with the kit) before acquisition and analysis by flow cytometry. Reduction of fluorescence intensity of the mitoscreen JC-1 stained embryonic stages was taken as the degree of depolarization of mitochondria.
SMILES,"GMI (Geometric Mean Intensity) of Fluorescence, Annexin-V-PE Staining ([1]; Eggs, 10 μM)",externalization of Phosphatidyl serine (result in words) [1],"GMI (Geometric Mean Intensity) of Fluorescence, Annexin-V-PE Staining ([1]; Microfilariae, 10 μM)","GMI (Geometric Mean Intensity) of Fluorescence, Mitoscreen-jc-1 staining (Mitochondrial Depolarisation assay) ([2]; Eggs, 10 μM)",induction of mitochondrial depolarization (result in words) [2],"GMI (Geometric Mean Intensity) of Fluorescence, Mitoscreen-jc-1 staining (Mitochondrial Depolarisation assay) ([2]; Microfilariae, 10 μM)","GMI (Geometric Mean Intensity) of Fluorescence, Annexin-V-PE Staining ([1]; Eggs, 1 μM)","GMI (Geometric Mean Intensity) of Fluorescence, Annexin-V-PE Staining ([1]; Microfilariae, 1 μM)","GMI (Geometric Mean Intensity) of Fluorescence, Mitoscreen-jc-1 staining (Mitochondrial Depolarisation assay) ([2]; Eggs, 1 μM)","GMI (Geometric Mean Intensity) of Fluorescence, Mitoscreen-jc-1 staining (Mitochondrial Depolarisation assay) ([2]; Microfilariae, 1 μM)"
OO [H2O2],30.95 and 33.55 and 35.75,dose dependent externalization of Phosphatidyl serine was observed,9.75 and 11.02 and 10.35,1225.16 and 1165.12 and 1295.39,dose dependent induction of mitochondrial depolarization was observed,785.33 and 823.57 and 750.62,–,–,–,–
CN[C@@H]1C[C@H]2O[C@@](C)([C@@H]1OC)n1c3ccccc3c3c4c(c5c6ccccc6n2c5c31)C(=O)NC4 [Staurosporine],–,did not mediate such effects on Phosphatidyl serine externalization,–,–,–,–,27.59 and 28.53 and 30.63,7.24 and 8.03 and 8.52,1549.35 and 1500.65 and 1510.50,895.30 and 979.20 and 930.16
CC1=CC(=O)c2c(O)cccc2C1=O [Plumbagin],81.25 and 85.22 and 89.36,dose dependent externalization of Phosphatidyl serine was observed,11.95 and 12.52 and 13.56,970.16 and 1078.76 and 897.56,dose dependent induction of mitochondrial depolarization was observed,435.26 and 476.20 and 398.76,–,–,–,–
